From patent US9255088B2, “Premature-termination-codons readthrough compounds” (The Regents of the University of California, priority 2010, dated 2016)

Key:
mdx mice = test: Serum creatine kinase (CK) in treated mdx mice; format: in vivo, mouse; conditions: treated mdx mice vs controls
[1] = test system: dystrophin in muscles of mdx mice; test: Dystrophin expression after systemic (intraperitoneal) administration to mdx mice; format: in vivo, mouse; conditions: 300 mg/kg, three weeks
Protocol: In these studies, animals were injected intraperitoneally with RTC#13 at a concentration of 300 mg/kg for three weeks with a wash out period of 5 days between each treatment. Mice were allowed to recover for three weeks and muscles were analyzed for dystrophin expression. […] Expression varied between different muscle groups. Dystrophin was prominent in diaphragm and heart, two of the tissues most affected in DMD patients.
The dystrophin protein produced in muscle fibers was functionally active and was able to restore β-dystroglycan expression, a major component of the dystrophin glycoprotein complex (DGC) that is missing in mdx mice and in human patients as the result of the lack of dystrophin expression.

SMILES: N=C1NC(=O)C(=Cc2ccc(-c3ccccc3[N+](=O)[O-])o2)S1 [RTC13, 2-imino-5-{[5-(2-nitrophenyl)-2-furyl]methylene}-1,3-thiazolidin-4-one]
- serum creatine kinase (CK) levels (mdx mice): significant difference in the CK levels
- full-length dystrophin by Western blot after systemic administration [1]: presence of full-length dystrophin in all tissues
